The text below walks through data of patent US20220339094A1, “NOVEL SKIN CARE COMPOSITION” (BEIERSDORF AG, priority 2019, published 2022).

The test system of one assay is C. acnes strain C3. Description: Minimum inhibitory concentration (MIC) of cosmetic excipients, strain C3. The format is cell-based, Cutibacterium acnes. As to conditions: % w/vol, anaerobic 3 days at 37° C, visual growth scoring. Here is the method:
(§1) In microbiology, the MIC is the lowest concentration of a chemical which prevents visible growth of bacterium. The resulted MIC value depends both on the microorganism and the test compound. The MIC is determined by preparing concentrations series of the test compound in vitro, incubating the solutions with the separate batches of cultured bacteria, and measuring the results using agar dilution or broth microdilution. For the experiments with C. acnes strains C3 and K8, media comprising yeast extract soy peptone and dextrose were used. The MIC is determined by turbidity.
(§2) A total of 125 cosmetic excipients were tested for their compatibility with C. acnes strains C3 and K8. Hydrophilic compounds were tested in a 96-well plate liquid broth format, poorly soluble compounds were pre-dissolved in DMSO before dilution in liquid broth and hydrophobic or solid compounds were tested in an agar well diffusion test assay. The different dilutions of the test excipients in media were prepared in Falcon tubes and then distributed in a deep well plate using a multistepper. Each well received 1.2 ml and was subsequently inoculated with 120 μl of C. acnes bacteria suspension (strain C3 and K8). From the deep well plate 200 μl were transferred in each well of a clear 96 well replicate plate. The leftover was discarded. The plates were then incubated anaerobically for 3 days at 37° C. Following incubation, the test plates were visually examined and wells were scored for growth or complete growth inhibition to define the minimum inhibitory concentration.
(§3) These excipients are listed in the below table with their compatibility values for C. acnes strains C3 and K8. The compatibility values represent the MIC value of the listed ingredients with the tested C. acnes strains. At this concentration [% w/vol] the tested compound starts interfering with the growth of the tested strains. The compounds can be used in formulations at concentrations below this concentration.

The next assay deals with C. acnes strain K8. Description: Minimum inhibitory concentration (MIC) of cosmetic excipients, strain K8. The format is cell-based, Cutibacterium acnes. Conditions: % w/vol, anaerobic 3 days at 37° C, visual growth scoring. The protocol: as §1, §2, §3

As to `CC(CO)CO` [methylpropanediol], the “COMPATABILITY VALUE C3 (MIC)” value in the assay with C. acnes strain C3 was 4.00%. Further, the “COMPATABILITY VALUE K8 (MIC)” value in the assay on C. acnes strain K8 was determined as 4.00%.

For peg-40 hydrogenated castor oil, the “COMPATABILITY VALUE C3 (MIC)” value with C. acnes strain C3 is given as 1.00%. Moreover, the “COMPATABILITY VALUE K8 (MIC)” value in the assay on C. acnes strain K8 came to 1.00%.

For tocopherol, the “COMPATABILITY VALUE C3 (MIC)” value in the assay with C. acnes strain C3 is reported as 1.50%. Also, the “COMPATABILITY VALUE K8 (MIC)” value in the assay with C. acnes strain K8 came to 1.50%.

On to `O=C(O)CC(O)(CC(=O)O)C(=O)O` [citric acid], for which, in the assay on C. acnes strain K8, the “COMPATABILITY VALUE K8 (MIC)” value is listed as 0.08%.

On to ethylhexyl cocoate, for which, in the assay with C. acnes strain C3, the “COMPATABILITY VALUE C3 (MIC)” value was 10.00%. In the assay on C. acnes strain K8, the “COMPATABILITY VALUE K8 (MIC)” value is recorded as 10.00%.

Take `CCCCCCC(O)CO` (stereo not drawn) [caprylyl glycol]: in the assay with C. acnes strain C3, the “COMPATABILITY VALUE C3 (MIC)” value is on record as 0.18%. The “COMPATABILITY VALUE K8 (MIC)” value in the assay with C. acnes strain K8 was found to be 0.18%.

`CC(=O)Oc1c(C)c(C)c2c(c1C)CCC(C)(CCC[C@H](C)CCC[C@H](C)CCCC(C)C)O2` (stereo partly drawn) [tocopheryl acetate]: the “COMPATABILITY VALUE K8 (MIC)” value in the assay on C. acnes strain K8 worked out at 1.00%.
